Reference: ChEMBL document CHEMBL3507680, “University of Dundee, Gates Library screen for HepG2 cell viability”

Test: Human HepG2 cell viability assay in 384 well format
Format: toxicity, cell-based
Parameters: dose 125 nL, time 70.5 hour; concentration not given beside the values
Conditions: HepG2 cells, read-out: Inhibition

CC(C)NC(=O)N1CCC2(CC1)Cc1ccccc1CNC2=O
cytotoxicity at 70.5 h: -4.51%

Cc1cc(C(=O)NCC2OCCc3cn(CC4CC4)nc32)c(C)[nH]1 (stereo not drawn)
cytotoxicity at 70.5 h: -3.07%

COCCn1cc2c(n1)C(CNC(=O)c1cc(C)[nH]c1C)OCC2 (stereo not drawn)
cytotoxicity at 70.5 h: -2.66%

CN(C)Cc1nc(-n2cnc(C(=O)NC3CCCC3)c2)n2ccccc12
cytotoxicity at 70.5 h: -3.17%

Cc1nc(CN2CCC3(C2)CN(C(=O)c2conc2C)C3)cs1
cytotoxicity at 70.5 h: -3.94%

O=C(c1ccccc1)N1CCOC2CNCC[C@H]21 (stereo partly drawn)
cytotoxicity at 70.5 h: -7.04%

CC(C)NC(=O)c1cc2c(s1)CCN2c1ncccn1
cytotoxicity at 70.5 h: 3.85%

O=C(c1ccccc1)N1CCO[C@@H]2CNC[C@@H]21
cytotoxicity at 70.5 h: -5.73%

COCCNC(=O)C[C@@H]1COC[C@H]2CN(C(=O)COC)C[C@@H]12
cytotoxicity at 70.5 h: -8.18%

CCn1nnc2c1C(COC)CN(Cc1ccco1)C2 (stereo not drawn)
cytotoxicity at 70.5 h: 39.7%

O=C(c1ccoc1)N1Cc2cnn(CC3CC3)c2C(COCC2CC2)C1 (stereo not drawn)
cytotoxicity at 70.5 h: 16%

O=C(NC1CC1)N1C[C@@H]2CCN(C(=O)c3cscn3)[C@@H]2C1
cytotoxicity at 70.5 h: 10.3%

CCN1Cc2ccccc2CC2(CCN(CC3CCC3)CC2)C1=O
cytotoxicity at 70.5 h: 11.7%

Cc1cc(C(=O)NC2CCc3c(ccc(=O)n3CC3CC3)C2)no1 (stereo not drawn)
cytotoxicity at 70.5 h: -6.82%

CCS(=O)(=O)N1CCN(CCOC)c2ncccc2C1
cytotoxicity at 70.5 h: -4.33%

Cn1nccc1-c1ncc(-c2cc(C(=O)O)n(CC3CC3)c2)cn1
cytotoxicity at 70.5 h: 6.58%

Cn1ccnc1CN1CCC2(CC1)CC(N1CCCC1)c1ccccc12 (stereo not drawn)
cytotoxicity at 70.5 h: -4.57%

Cn1cc(-c2cnc(-c3ccnn3C)nc2)cc1C(=O)NC1CC1
cytotoxicity at 70.5 h: -4.34%

CS(=O)(=O)N1C[C@@H]2CCN(C(=O)c3cscn3)[C@@H]2C1
cytotoxicity at 70.5 h: -2.23%

COCCN1CCN(S(=O)(=O)C2CC2)Cc2cccnc21
cytotoxicity at 70.5 h: -5.48%

Cn1cc(CN2CCc3ccc(=O)n(CC4CC4)c3CC2)cn1
cytotoxicity at 70.5 h: 4.08%

Cc1cn2c(=O)c(-c3ccnc(N[C@@H](C)CO)n3)cnc2s1
cytotoxicity at 70.5 h: -5.83%

COCCN1CC(=O)c2sc(NCc3ccccc3)nc2C1
cytotoxicity at 70.5 h: 0.849%

OC[C@@H]1CCCN1c1nccc(-c2c[nH]nc2-c2ccncc2)n1
cytotoxicity at 70.5 h: -2.39%

COc1ccc2[nH]cc(-c3ccnc(N4CCC(C)CC4)n3)c2c1
cytotoxicity at 70.5 h: 1.51%

NS(=O)(=O)NCc1cc(-c2ccco2)n(CC(F)(F)F)n1
cytotoxicity at 70.5 h: -5.08%

Cc1ncc(-c2ccnc(N[C@@H](C)CO)n2)c(C2CCCCC2)n1
cytotoxicity at 70.5 h: 24.8%

O=c1c(-c2ccnc(N3CCC[C@H]3CO)n2)cnc2sccn12
cytotoxicity at 70.5 h: -1.75%

CCNc1nc2c(s1)C(=O)CN(C(=O)NCc1ccccc1)C2
cytotoxicity at 70.5 h: -0.493%

CC(C)NC(=O)N1CC(=O)c2sc(NC3CCCCC3)nc2C1
cytotoxicity at 70.5 h: 3.79%

OCCNc1nccc(-c2cn3nccc3nc2C2CCCCC2)n1
cytotoxicity at 70.5 h: -8.52%

COc1cccc(OC)c1-c1ccnc2cc(CC(=O)N(C)C)nn12
cytotoxicity at 70.5 h: -11.5%

CC(=O)Nc1nc(C)c(S(=O)(=O)NCCc2ccccn2)s1
cytotoxicity at 70.5 h: -3.16%

CC(=O)Nc1nc(C)c(S(=O)(=O)NCCc2cccnc2)s1
cytotoxicity at 70.5 h: 1.62%

CC(=O)N1CCC(n2nccc2-c2cnc(N3CCCC3)nc2)CC1
cytotoxicity at 70.5 h: -9%

Cc1cn2c(=O)c(-c3ccnc(N4CCC[C@@H]4CO)n3)cnc2s1
cytotoxicity at 70.5 h: -3.36%

COCCCNc1nc(CNC(=O)C2CCC2)cc(-c2ccco2)n1
cytotoxicity at 70.5 h: -5.78%

CC(=O)N1CCC(n2nccc2-c2cnc(N(C)CCO)nc2)CC1
cytotoxicity at 70.5 h: -6.31%

c1cc(-c2cn3nccc3nc2C2CCCCC2)nc(N2CCCC2)n1
cytotoxicity at 70.5 h: -7.05%

NC(=O)[C@H]1CCCN(c2nccc(-c3c[nH]nc3-c3cccnc3)n2)C1
cytotoxicity at 70.5 h: -2.79%

COc1cccc(OC)c1-c1ccnc2cc(CC(=O)NC(C)C)nn12
cytotoxicity at 70.5 h: -7.86%

CC(C)[C@H](NS(C)(=O)=O)C(=O)NCc1cc(-c2ccco2)nn1C
cytotoxicity at 70.5 h: 7.38%

CN(CCO)c1ncc(-c2ccc(NC(=O)[C@@H]3CCCCN3)cc2)cn1
cytotoxicity at 70.5 h: -1.72%

CC[C@@H](C)[C@@H](N)C(=O)Nc1cccc(-c2cnc(N(C)CCO)nc2)c1
cytotoxicity at 70.5 h: -6.3%

CNc1nc2c(s1)C(=O)CN(C(=O)[C@@H](N)Cc1cccc(OC)c1)C2
cytotoxicity at 70.5 h: -5.78%

CC[C@H](C)[C@H](N)C(=O)N1CC(=O)c2sc(NCc3ccccc3)nc2C1
cytotoxicity at 70.5 h: 7.34%

CC[C@H](C)[C@H](N)C(=O)Nc1nc(-c2cnc(N3CCOCC3)nc2)cs1
cytotoxicity at 70.5 h: -1.59%

CC(C)[C@H](NS(C)(=O)=O)C(=O)NCc1cc(-c2cccc(Cl)c2)nn1C
cytotoxicity at 70.5 h: 6.72%

Cc1[nH]c2ccccc2c1-c1ccnc(NC[C@H](O)CO)n1
cytotoxicity at 70.5 h: 26.8%

CC[C@H](C)Nc1nccc(-c2cnc3sc(C)c(C)n3c2=O)n1
cytotoxicity at 70.5 h: 23.3%

Cc1csc2ncc(-c3ccnc(N4CCN(C)CC4)n3)c(=O)n12
cytotoxicity at 70.5 h: 24.1%

CN1CCCN(c2nccc(-c3c[nH]nc3C3CCCCC3)n2)CC1
cytotoxicity at 70.5 h: -3.95%

Cc1ncc(-c2ccnc(N3CCCCCC3)n2)c(-c2cccnc2)n1
cytotoxicity at 70.5 h: -10.6%

CC(C)[C@H]1COC(=O)N1Cc1nncn1C(C)C
cytotoxicity at 70.5 h: -7.29%

CCCOC(=O)N1CCn2nc(-c3nc4ccccc4n3C)cc2C1
cytotoxicity at 70.5 h: -5.25%

CCNc1ncc(CN2C[C@@H](CN3CCC(CO)CC3)[C@@H](CO)C2)cn1
cytotoxicity at 70.5 h: -2.73%

CN1CC2(CCN(C(=O)COc3ccc(Cl)cc3Cl)CC2)OC1=O
cytotoxicity at 70.5 h: 14.5%

c1ccc(-c2nc(CCNc3nnc(C4CCC4)o3)no2)cc1
cytotoxicity at 70.5 h: 15.9%

COCC(=O)Nc1ccccc1Sc1c(C)n[nH]c1C
cytotoxicity at 70.5 h: 25.1%

CN(C)CCCN1CC2(CCN(C3CCCOC3)CC2)OC1=O (stereo not drawn)
cytotoxicity at 70.5 h: -6.54%

CC(C)(C)NC(=O)CN1CCCC(c2ccc(C(=O)O)cc2)C1 (stereo not drawn)
cytotoxicity at 70.5 h: 0.492%

CCCn1cc(-c2ccnc(NC3CCc4ccccc4C3)n2)c(C)n1 (stereo not drawn)
cytotoxicity at 70.5 h: 19.3%

CN(Cc1ccccn1)c1nccc(N2CCN[C@H]3CS(=O)(=O)C[C@H]32)n1
cytotoxicity at 70.5 h: 8.37%

COc1cncc(-n2ccnc2-c2ccc(C(=O)O)s2)c1
cytotoxicity at 70.5 h: -10%

C[C@@H]1CN(C(=O)c2nc3sccn3c2-c2ncc[nH]2)C[C@H](C)O1
cytotoxicity at 70.5 h: -7.22%

Cc1cc(=O)[nH]c(NCCNC(=O)c2ccccc2N2CCCC2)n1
cytotoxicity at 70.5 h: 32.3%

O=S1(=O)C[C@@H]2[C@H](C1)N(Cc1ncc[nH]1)CCN2C/C=C/c1ccccc1
cytotoxicity at 70.5 h: -7.45%

COc1ccc(OC)c(-n2cnnc2C)c1
cytotoxicity at 70.5 h: -3.42%

COc1cc(C(=O)N(C)C(C)Cc2cc(C)ccn2)ccn1 (stereo not drawn)
cytotoxicity at 70.5 h: 25.8%

CCn1c(CC2CCN(S(=O)(=O)Cc3ccccc3)CC2)nn(C)c1=O
cytotoxicity at 70.5 h: -9.61%

Cc1nsc(NC(=O)NC2(CN3CCCCC3)CCCCC2)n1
cytotoxicity at 70.5 h: -9.47%

CC(C)OCCNC(=O)C1CCC(=O)N(C2CCCC2)C1 (stereo not drawn)
cytotoxicity at 70.5 h: -4.22%

CCC(CO)N(Cc1cccs1)C(=O)Cc1ccncc1 (stereo not drawn)
cytotoxicity at 70.5 h: -8.11%

COc1ccc(CCN2C(=O)O[C@@H]3CN(C)C[C@@H]32)cc1
cytotoxicity at 70.5 h: -10.7%

CCN(CCO)Cc1cn(-c2cccc(F)c2)nc1-c1ccc(C)o1
cytotoxicity at 70.5 h: -14.6%

O=S1(=O)CCC(n2nc(Cc3cccs3)nc2-c2cnccn2)C1 (stereo not drawn)
cytotoxicity at 70.5 h: 0.418%

COc1cccc2ccc(N3CCC(O)(c4ccc(C)cn4)CC3)nc12
cytotoxicity at 70.5 h: -21.5%

Cc1cc(CN2CCN(C(=O)C3CCC3)[C@@H]3CS(=O)(=O)C[C@@H]32)ccc1F
cytotoxicity at 70.5 h: 1.76%

COc1ccccc1C(=O)N1CCN(C(=O)CCn2ccnc2)CC1
cytotoxicity at 70.5 h: -5.01%

CC(NC(=O)c1cc2n(n1)CCCN(C)C2)c1cn2ncsc2n1 (stereo not drawn)
cytotoxicity at 70.5 h: -7.44%

CSCC[C@@H](CO)Nc1ccc(-c2nc(C3CC3)no2)cn1
cytotoxicity at 70.5 h: -3.18%

CCn1ccnc1CN1CCCC(CO)(CCCc2ccccc2)C1 (stereo not drawn)
cytotoxicity at 70.5 h: -0.875%

NC(=O)CCn1cc(CNCCCc2ccncc2)c2ccccc21
cytotoxicity at 70.5 h: -3.77%

Cc1nc(-c2cccnc2)ncc1C(=O)N1CCC(c2ncc[nH]2)CC1
cytotoxicity at 70.5 h: -3.5%

COC(=O)c1cc(OCC2CCC2)cc(C(=O)N[C@H]2CCCC[C@@H]2O)c1
cytotoxicity at 70.5 h: -8.47%

COC1CCCOC12CCN(C(=O)NCc1ccco1)CC2 (stereo not drawn)
cytotoxicity at 70.5 h: -1.17%

COc1ccc(CNC(=O)Cc2csc(C(C)=O)c2)cc1
cytotoxicity at 70.5 h: -8.65%

CC(C)n1cnnc1Cn1ccc2ncccc2c1=O
cytotoxicity at 70.5 h: 1%

CCCN1CCN(C(=O)c2ccc(Cl)cn2)[C@H]2CS(=O)(=O)C[C@H]21
cytotoxicity at 70.5 h: -10.4%

CN(Cc1ccc(-n2cccn2)cc1)C[C@@H]1CCCN2CCCC[C@H]12
cytotoxicity at 70.5 h: 24.9%

CN1CCC(C(=O)NCCC2CN(c3cnn(C)c(=O)c3)CCO2)CC1 (stereo not drawn)
cytotoxicity at 70.5 h: -7.81%

c1cc2c(cc1-c1noc3c1CN(C1CCC1)CC3)OCO2
cytotoxicity at 70.5 h: 1.77%

CNc1ncc(-c2csc(NC(=O)C[C@H]3COCCN3)n2)cn1
cytotoxicity at 70.5 h: -11.4%

CC(C)N(C)Cc1cncc2c1CCN(C1CCOCC1)C2
cytotoxicity at 70.5 h: -6.55%

O=C(c1cscn1)N1CCCC2(CCN2Cc2cccc(F)c2)C1 (stereo not drawn)
cytotoxicity at 70.5 h: -0.0272%

O=C(O)[C@]12CCCN(CC3CCOC3)C[C@H]1CN(c1ncccn1)C2 (stereo partly drawn)
cytotoxicity at 70.5 h: -5.74%

CCOCc1nn(C)c2c1CN(Cc1cccs1)CC2
cytotoxicity at 70.5 h: -7.58%

O=C(c1ccsc1)N1CCO[C@@H]2CN(Cc3nccs3)C[C@@H]2C1
cytotoxicity at 70.5 h: -3.17%

Cc1cnc(N2CCC3(CCN(Cc4csc(C)n4)C3=O)C2)nc1 (stereo not drawn)
cytotoxicity at 70.5 h: -5.87%

Cn1cccc1C(=O)N1CCO[C@@H]2CN(Cc3nccs3)C[C@@H]2C1
cytotoxicity at 70.5 h: -6.7%

Cc1noc(C)c1CN1CCOCC12CCN(c1ncccn1)CC2
cytotoxicity at 70.5 h: -8.87%

N#Cc1ccc(N2CCC3(CC2)CC(N2CCOCC2)CO3)cc1 (stereo not drawn)
cytotoxicity at 70.5 h: -6.28%

CN(C)C(=O)Cn1c2c(ccc1=O)CCN(Cc1cnn(C)c1)CC2
cytotoxicity at 70.5 h: 2.17%

Cc1oncc1C(=O)N1CC[C@H]2[C@H](C[C@@H](CN(C)C)N2CC2CC2)C1
cytotoxicity at 70.5 h: -0.907%

CC(C)CC(=O)N1CC[C@H]2N(C)CC[C@@]2(C(=O)Nc2cccnc2)CC1
cytotoxicity at 70.5 h: -9.05%

CN(C)CCOCc1cncc2c1CCN(C(=O)C1CCOCC1)C2
cytotoxicity at 70.5 h: -6.54%

Cc1noc(C)c1CN1CCn2cc(CNc3ccccn3)nc2C1
cytotoxicity at 70.5 h: 5.28%

CN(C)CCOCc1cncc2c1CCN(C1CCOCC1)C2
cytotoxicity at 70.5 h: -11.2%
